For five compounds, Kd results are on record in ChEMBL document CHEMBL1150977, “A quantitative analysis of kinase inhibitor selectivity” (Nat Biotechnol, 2008).

The target of assay [1] is T1, Serine/threonine-protein kinase 17A (Homo sapiens, UniProt Q9UEE5).
T1 sequence (Q9UEE5 whole entry): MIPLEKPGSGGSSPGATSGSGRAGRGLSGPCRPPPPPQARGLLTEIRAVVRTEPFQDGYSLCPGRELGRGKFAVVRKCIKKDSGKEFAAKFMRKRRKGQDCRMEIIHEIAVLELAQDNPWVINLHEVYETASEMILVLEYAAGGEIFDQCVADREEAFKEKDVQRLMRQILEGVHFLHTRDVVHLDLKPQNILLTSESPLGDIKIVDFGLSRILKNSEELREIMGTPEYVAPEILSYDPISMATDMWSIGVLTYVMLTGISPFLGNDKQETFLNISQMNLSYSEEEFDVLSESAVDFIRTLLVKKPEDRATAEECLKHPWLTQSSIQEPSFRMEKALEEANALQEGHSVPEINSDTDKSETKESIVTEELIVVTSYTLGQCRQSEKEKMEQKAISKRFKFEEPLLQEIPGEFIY

Assay [2] has as its target Casein kinase I isoform gamma-1 (Homo sapiens, UniProt Q9HCP0).
For assay [3], the target named is T2, Serine/threonine-protein kinase 3 (Homo sapiens, UniProt Q13188).
T2 sequence (Q13188 whole entry): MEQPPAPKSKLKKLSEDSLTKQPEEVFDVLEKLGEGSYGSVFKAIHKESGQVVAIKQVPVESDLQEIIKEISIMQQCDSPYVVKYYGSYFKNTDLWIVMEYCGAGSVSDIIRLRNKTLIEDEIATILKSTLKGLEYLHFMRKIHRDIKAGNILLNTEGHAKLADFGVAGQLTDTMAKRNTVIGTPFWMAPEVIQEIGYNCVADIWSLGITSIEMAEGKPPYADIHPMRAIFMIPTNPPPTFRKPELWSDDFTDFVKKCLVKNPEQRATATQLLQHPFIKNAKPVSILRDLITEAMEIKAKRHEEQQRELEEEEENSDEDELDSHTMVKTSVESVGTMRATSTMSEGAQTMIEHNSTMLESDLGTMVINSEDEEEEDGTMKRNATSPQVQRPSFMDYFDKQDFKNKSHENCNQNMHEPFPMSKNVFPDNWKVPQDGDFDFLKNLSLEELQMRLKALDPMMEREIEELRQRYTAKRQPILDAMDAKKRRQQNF

Assay [4] concerns the target BDNF/NT-3 growth factors receptor (Homo sapiens, UniProt Q16620).
In assay [5] the target is Calcium/calmodulin-dependent protein kinase kinase 2 (Homo sapiens, UniProt Q96RR4).
Assay [6] concerns the target Mast/stem cell growth factor receptor Kit (Homo sapiens, UniProt P10721).
A further assay addresses eIF-2-alpha kinase GCN2 (Homo sapiens, UniProt Q9P2K8, S808G).
Assay [7] addresses T3, Serine/threonine-protein kinase BRSK2 (Homo sapiens, UniProt Q8IWQ3).
T3 sequence (Q8IWQ3 whole entry): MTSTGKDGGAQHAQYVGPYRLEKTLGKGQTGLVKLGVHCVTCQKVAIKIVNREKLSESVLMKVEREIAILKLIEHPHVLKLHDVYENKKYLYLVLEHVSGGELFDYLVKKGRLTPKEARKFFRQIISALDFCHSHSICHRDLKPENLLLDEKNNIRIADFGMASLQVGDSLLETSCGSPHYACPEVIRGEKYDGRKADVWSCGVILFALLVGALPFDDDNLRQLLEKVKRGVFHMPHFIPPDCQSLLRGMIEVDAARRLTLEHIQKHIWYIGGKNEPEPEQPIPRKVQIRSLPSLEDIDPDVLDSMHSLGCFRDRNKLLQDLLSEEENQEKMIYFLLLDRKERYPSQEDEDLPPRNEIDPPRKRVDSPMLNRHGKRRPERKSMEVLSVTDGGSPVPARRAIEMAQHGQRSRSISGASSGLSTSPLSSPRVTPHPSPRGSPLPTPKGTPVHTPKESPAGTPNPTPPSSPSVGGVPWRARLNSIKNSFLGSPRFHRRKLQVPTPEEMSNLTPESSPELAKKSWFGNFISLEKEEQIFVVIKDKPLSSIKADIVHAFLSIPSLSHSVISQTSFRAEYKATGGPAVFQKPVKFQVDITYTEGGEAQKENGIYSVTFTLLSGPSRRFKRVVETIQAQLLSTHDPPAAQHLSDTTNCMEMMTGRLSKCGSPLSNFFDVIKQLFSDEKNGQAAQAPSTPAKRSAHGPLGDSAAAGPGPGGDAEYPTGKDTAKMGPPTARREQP

In assay [8] the target is T4, Tyrosine-protein kinase TXK (Homo sapiens, UniProt P42681).
T4 sequence (P42681 whole entry): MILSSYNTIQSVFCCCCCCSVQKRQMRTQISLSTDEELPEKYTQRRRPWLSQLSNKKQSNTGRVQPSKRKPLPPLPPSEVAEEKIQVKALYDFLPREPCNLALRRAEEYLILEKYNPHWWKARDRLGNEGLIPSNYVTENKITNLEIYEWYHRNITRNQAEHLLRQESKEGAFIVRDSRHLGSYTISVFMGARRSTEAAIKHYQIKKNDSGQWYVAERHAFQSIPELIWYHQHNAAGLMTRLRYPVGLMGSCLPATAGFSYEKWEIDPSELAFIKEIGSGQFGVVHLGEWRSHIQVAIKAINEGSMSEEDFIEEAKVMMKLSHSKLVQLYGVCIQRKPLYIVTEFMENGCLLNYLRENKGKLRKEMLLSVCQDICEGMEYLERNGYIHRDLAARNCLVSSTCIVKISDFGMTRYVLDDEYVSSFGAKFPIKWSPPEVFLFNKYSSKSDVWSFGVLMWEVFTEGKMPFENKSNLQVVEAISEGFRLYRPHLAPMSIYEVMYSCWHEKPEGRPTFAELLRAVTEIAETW

In assay [9] the target is BMP-2-inducible protein kinase (Homo sapiens, UniProt Q9NSY1).
The target of assay [10] is Dual specificity protein kinase CLK4 (Homo sapiens, UniProt Q9HAZ1).

pKd: −log10 of the molar value. A value given as a limit tells only on which side of the number the result lay.

Regarding `Oc1ccc(-c2nc(-c3ccncc3)c(-c3ccc(F)cc3)[nH]2)cc1` [SB-202190], the pKd in assay [1], in [2], in [3], in [4], in assay [5] and in assay [6] was under 5.00 each time. Besides, the pKd (at eIF-2-alpha kinase GCN2; in assay [7]; in assay [8]; in assay [9]; in [10]) was under 5.00 throughout.
As for `COCC(=O)NC/C=C/c1ccc2ncnc(Nc3ccc(Oc4ccc(C)nc4)c(C)c3)c2c1` [CP-724714], the negative logarithm of the Kd (pKd) in assay [1], in assay [2], in assay [3], in [4], in assay [5] and in assay [6] was under 5.00 each time. Besides, the pKd (on eIF-2-alpha kinase GCN2; in [7]; in [8]; in assay [9]; in assay [10]) was under 5.00 in each case.
As to `Nc1nc(Nc2ccc(S(N)(=O)=O)cc2)nn1C(=O)c1c(F)cccc1F` [JNJ-7706621], the pKd in assay [4] was under 5.00; at eIF-2-alpha kinase GCN2 it was 5.41; in assay [7], 5.57; in assay [8], under 5.00.
On to `NC(=O)c1ccc(-c2nc(-c3ccc4c(c3)OCO4)c(-c3ccccn3)[nH]2)cc1` [SB-431542], for which the pKd (in [1]; in assay [3]; in assay [4]; in [5]; in [6]; at eIF-2-alpha kinase GCN2) was under 5.00 throughout. Further, the negative logarithm of the Kd (pKd) in assay [7], in assay [8], in assay [9] and in assay [10] was under 5.00 throughout.
On to `CCOc1cc2ncc(C#N)c(Nc3ccc(F)c(Cl)c3)c2cc1NC(=O)/C=C/CN(C)C` [PELITINIB], for which the pKd in assay [2] was under 5.00; in [4] it was under 5.00; in assay [6], under 5.00; on eIF-2-alpha kinase GCN2, 6.54; in assay [7], under 5.00; in [8], 5.26.

A word on the pKd: it is the negative decadic logarithm of the Kd, by convention in mol/L.
